Experimental data from US4659691A, “Novel cyclic Hexapeptide LHRH antagonists” (Merck & Co., Inc., priority 1985, dated 1987).
Where a SMILES comes first, the peptide text is derived from it. [ ]: non-standard residue; d: D form.

Tested on: rat pituitary cells
Assay: Isolated rat pituitary cell culture system: antagonism of LH-RH-stimulated LH release
Format: cell-based
Description: Cyclic hexapeptides of the present invention are evaluated as antagonists of LH-RH in an in vitro pituitary cell culture system. This assay system is described in Vale and Brant, Methods Enzymol, 37, 82 (1975), hereby incorporated by reference for this purpose.
For purposes of illustration, the data for cyclo-[Tyr-D-Trp-Leu-Arg-Trp-Pro] (5) in this assay are presented.
At a dose range of 10^-5 to 10^-9 M, compound 5 was tested in combination with a single dose of LHRH (luteinizing hormone release hormone) on rat pituitary cells in vitro for 60 minutes.

**Q.** Which “reduction of LH release” value (all lower doses of compound 5 (below 10^-5 M) in the presence of 5×10^-7, 10^-7, 5×10^-8 and 10^-8 M LHRH) does the source give for `CC(C)C[C@@H]1NC(=O)[C@@H](Cc2c[nH]c3ccccc23)NC(=O)[C@H](Cc2ccc(O)cc2)NC(=O)[C@@H]2CCCN2C(=O)[C@H](Cc2c[nH]c3ccccc23)NC(=O)[C@H](CCCNC(=N)N)NC1=O` [Compound 5, cyclo-(Tyr-D-Trp-Leu-Arg-Trp-Pro)] (cyclo(LRWPY[dW])) here?
**A.** Its value is “essentially ineffective”.

**Q.** What about the “antagonism to LHRH” value (compound 5 at 10^-5 M, LHRH at 10^-6, 5×10^-7, 5×10^-8, 10^-8, 5×10^-9, 10^-9 and 5×10^-10 M, 60 minutes) of the same molecule?
**A.** The value was “significantly antagonistic”.

**Q.** And the “reduction of LH release” value (compound 5 at 10^-7, 10^-8 and 10^-9 M in the presence of 10^-6 M LHRH, 60 minutes)?
**A.** Its value is “significantly reduced LH release”.

**Q.** And the “effect on LH release (compound alone)” value (compound 5 at 10^-7 M, no LHRH)?
**A.** Its value is “does not affect LH release”.

**Q.** What about the “overall conclusion on LHRH antagonism” value (greatest antagonistic effect at lower doses of LHRH) of the same molecule?
**A.** The value was “antagonistic to LHRH”.

**Q.** And the “inhibition of LH release, dose relation” value (in the presence of 5×10^-9, 10^-9 and 5×10^-10 M LHRH, greatest antagonism at 10^-9 M LHRH)?
**A.** The value was “significant dose related inhibition”.
